Test results published in PMC7698965 (Cancers, 2020).
Where two headings read alike, the source gives them in different places.

What was measured:
S. typhimurium TA98 = test: Ames test; details: TA98, positive control NPD 20.0 mg/plate
Experimental: (§1) Salmonella typhimurium TA98 and TA100 strains were incubated in agar minimum glucose milieu solution (Difco Bacto® agar) and aqueous glucose solution (40%). […] Briefly, 1 in phosphate buffer (0.1 M, pH 7.4) and DMSO (10%, v/v) at five doses, 0.450, 0.150, 0.050, 0.016, and 0.005 μg/plate, starting at the highest doses without toxic effects (0.450 μg/plate), were studied in triplicate. […] The revertants were counted and the studied system was considered mutagenic if the colonies number was at least doubled the natural revertants (negative control) for two or more consecutive doses.

S. typhimurium TA100 = test: Ames test; details: TA100, positive control NPD 2.0 mg/plate
Experimental: as §1

[1] = system: U87 MG human glioblastoma; test: In vivo anti-glioblastoma activity
F98-cell = system: F98-cell; design: method as in earlier work; details: post-neutron irradiation (2 Gy), cited from earlier work
[2] = system: U87 MG cells co-cultured with neonatal murine astrocytes; test: Confocal microscopy of treated co-cultures (PKH26, DAPI); format: cell-based, human; details: IC50,U87 MG doses, 24 h
Experimental: Astrocytes (3 × 10^4 cells) were seeded into p35 dishes and were allowed to grow until 80% confluence. Next, 5 × 10^4 U87 MG stained cells with PKH26 dye were seeded onto a p35 dish containing a growing primary cell culture of astrocytes. […] A p60 dish treated with 1% DMSO served as a negative control. Treated cells were incubated for further 24 h. After that, treated co-cultures were fixed for 20 min at 4 °C with PFA and washed 2 times with PBS. Then, samples were permeabilized for 10 min at room temperature with 0.1% Triton X-100 in PBS, passed through washing PBS, blocked with 5% BSA:PBS for 1 h at room temperature, and incubated overnight in a solution of 1% BSA:PBS containing the primary antibody and DAPI at 4 °C. After washing, treated cells were incubated in 1:500-diluted secondary antibody during 2 h at room temperature. […] DAPI was used at a 1:1000 dilution. Antibodies were detected by confocal microscopy using a confocal Olympus FV300 microscope.

U87 MG cells = test: Cell cycle/DNA content by flow cytometry; format: cell-based, human; details: 24 h at IC50 (1 8.0 μM, Sun 32 μM)
Experimental: (§2) The DNA content in G1/G0, S, and G2/M phases was analyzed using flow cytometry.
(§3) U87 MG cells were stained with CFSE using CellTrace™ CFSE Cell Proliferation Kit (Thermo Fisher Scientific, Waltham, MA, USA) and seeded into p60 dishes (3 × 10^5 cells) containing a growing culture of glia. […] The harvested cells were washed with PBS, fixed with 2% PFA solution at 4 °C for 20 min. Subsequently, the cells were resuspended in fresh staining buffer (1 µg/mL DAPI and 0.1% Triton X prepared in PBS) and incubated in the dark for 30 min at room temperature. Cell cycle distribution analysis was performed with an Attune NxT flow cytometer using Attune NxT Software for data acquisition. For each sample, cellular aggregates were gated out and 10,000 cells were counted and plotted on a single parameter histogram. The percentages of cells in the G1/G0, S, and G2/M phases and the sub-G1 peak were then calculated using FlowJo 7.6.

astrocytes = test: Cell cycle/DNA content by flow cytometry; format: cell-based, mouse; details: 24 h at IC50 (1 8.0 μM, Sun 32 μM)
Experimental: as §2, §3

U87 MG = details: 24 h incubation, SRB; cited from earlier work
C6 = details: cited from earlier work; for IC50: 24 h incubation, SRB
HT-29 = details: 24 h incubation, SRB; cited from earlier work
AMPK = details: read-out: IC50,Sun,AMPK; cited from earlier work
RSK1 = details: read-out: IC50,Sun,RSK1; cited from earlier work
[3] = 1 at 1 mg/kg/day, Tmz at 4 mg/kg/day, ip three times a week

In the case of `Nc1ccc([N+](=O)[O-])cc1N` [Positive control, 4-Nitro-o-phenylendiamine], the Number of revertants (S. typhimurium TA98) is reported as 295 ± 11 and the Number of revertants (S. typhimurium TA100) is reported as 704 ± 6.
With `Cn1nnc2c(C(N)=O)ncn2c1=O` [Tmz, temozolomide] the mouse survival time [1, 3] was 27 days, the “time to mouse deaths” value [1, 3] was 23 days and the median survival ([1]; Tmz 4 mg/kg/day ip three times a week) was 23 days.
For “10B-boronophenylalanine fructose [Compound 10BPA-fr]”, the “Surviving Fraction” value (F98-cell; 0.1 ppm equivalents of 10B) is given as 89 ± 11%, the “Surviving Fraction” value (F98-cell; 1.0 ppm equivalents of 10B) is given as 71 ± 11% and the “Surviving Fraction” value (F98-cell; 10.0 ppm equivalents of 10B) is given as 92 ± 6%.
For `CCN(CC)CCNC(=O)c1c(C)[nH]c(/C=C2\C(=O)Nc3ccc(F)cc32)c1C` [Sun, sunitinib], the DAPI nuclei staining [2] was “chromatin condensation”, the “U87 MG population (PKH26 dye) compared to the control” value [2] was “decrease of U87 MG population” and the “effect on cell cycle distribution” value (U87 MG cells) was “increase in the percentage of both astrocytes and U87 MG cells in the sub-G1 phase”. For the same molecule, the “effect on cell cycle distribution” value (astrocytes) was “increase in the percentage of both astrocytes and U87 MG cells in the sub-G1 phase”, the IC50 (U87 MG) was 32 ± 4 µM and the IC50 (C6) was 36 ± 10 µM. The IC50 (HT-29) was 6.25 ± 0.04 µM, the IC50 (AMPK) was 0.32 µM and the IC50 (RSK1) was […].
For `CS(=O)(=O)CCNCc1ccc(-c2ccc3ncnc(Nc4ccc(OCc5cccc(F)c5)c(Cl)c4)c3c2)o1` [Lap, lapatinib], the IC50 (U87 MG) is listed as 54 ± 14 µM, the IC50 (C6) is listed as greater than 100 µM and the “percent of cells survival at 100 μM” value (C6; C6, 100 μM) is listed as 89 ± 5%. For the same molecule, the “percentages of cell survival at 100 μM” value (C6; C6, 100 μM) was 89 ± 5% and the IC50 (HT-29) was 6.25 ± 0.05 µM.
For `C#Cc1cccc(Nc2ncnc3cc(OCCOC)c(OCCOC)cc23)c1` [Erl, erlotinib], the IC50 (U87 MG) is listed as 63 ± 5 µM, the IC50 (C6) is listed as greater than 100 µM and the IC50 (HT-29) is listed as greater than 100 µM.
